Results on 2 compounds are retold here after ChEMBL document CHEMBL1125524, “Adenosine A1 antagonists. 2. Structure-activity relationships on diuretic activities and protective effects against acute renal failure” (J Med Chem, 1992).

For test [1], the system named is Rattus norvegicus. In words: Serum creatinine concentration measured after intraperitoneal administration of 1 mg/kg of compound to rats(vehicle 4.74+/-0.31). The format is functional.
The subject of test [2] is Rattus norvegicus. In words: Serum creatinine concentration measured after intraperitoneal administration of 0.1 mg/kg of compound to rats(vehicle 6.90+/-0.20). The format is functional.
The subject of test [3] is Rattus norvegicus. Put plainly: Effect on urinary excretion potassium and sodium after oral administration of 0.1 mg/kg to rats(potassium and sodium excretion in control rat is 0.180+/-0.017). The format is functional, Urine.
Test [4] relates to Rattus norvegicus. Put plainly: Effect on urinary excretion potassium and sodium after oral administration of 0.4 mg/kg to rats(potassium and sodium excretion in control rat is 0.191+/-0.020). The format is functional, Urine.
For test [5], the system named is Rattus norvegicus. Put plainly: Effect on urinary excretion potassium and sodium after oral administration of 1.6 mg/kg to rats(potassium and sodium excretion in control rat is 0.174+/-0.013). The format is functional, Urine.
Test [6] concerns Rattus norvegicus. Put plainly: Urea nitrogen concentration measured after intraperitoneal administration of 1 mg/kg of compound to rats(vehicle 139.8+/-7.8). The format is functional.
The test system of test [7] is Rattus norvegicus. In words: Percent inhibition of serum creatinine by the compound given as ratio of Cr value in treated to vehicle treated ones after intraperitoneal administration of 1 mg/kg of compound to rats(vehicle 4.74+/-0.31). The format is functional. Conditions: ip.
The subject of test [8] is Rattus norvegicus. Put plainly: Ratio of urinary excretion value (urinary volume) in treated rats to that in control rats, at a peroral dose of 0.1 mg/Kg. The format is functional, Urine.
Test [9] has as its system Rattus norvegicus. Put plainly: Ratio of urinary excretion value (urinary volume) in treated rats to that in control rats, at a peroral dose of 0.4 mg/Kg. The format is functional, Urine.
The test system of test [10] is Rattus norvegicus. Put plainly: Ratio of urinary excretion value (urinary volume) in treated rats to that in control rats, at a peroral dose of 1.6 mg/Kg. The format is functional, Urine.
Test [11] has as its system Rattus norvegicus. In words: Ratio of sodium ion/potassium ion concentration in treated rats to that in control rats, at a peroral dose of 0.1 mg/Kg. The format is functional.
The test system of test [12] is Rattus norvegicus. In words: Ratio of sodium ion/potassium ion concentration in treated rats to that in control rats, at a peroral dose of 0.4 mg/Kg. The format is functional.
The test system of test [13] is Rattus norvegicus. Put plainly: Ratio of sodium ion/potassium ion concentration in treated rats to that in control rats, at a peroral dose of 1.6 mg/Kg. The format is functional.
Test [14] has as its system Rattus norvegicus. In words: Ratio of urinary excretion value (Na+ concentration) in treated rats to that in control rats, at a peroral dose of 0.1 mg/Kg. The format is functional, Urine.
Test [15] concerns Rattus norvegicus. Put plainly: Ratio of urinary excretion value (Na+ concentration) in treated rats to that in control rats, at a peroral dose of 0.4 mg/Kg. The format is functional, Urine.
Test [16] concerns Rattus norvegicus. Put plainly: Ratio of urinary excretion value (Na+ concentration) in treated rats to that in control rats, at a peroral dose of 1.6 mg/Kg. The format is functional, Urine.
Test [17] relates to Rattus norvegicus. Put plainly: Percent inhibition of serum creatinine by the compound given as ratio of Cr value in treated to vehicle treated ones after intraperitoneal administration of 0.1 mg/kg of compound to rats(vehicle 6.90+/-0.20). The format is functional. Conditions: ip.
In test [18] the test system is Rattus norvegicus. In words: Oral diuretic activity was measured after oral administration of 0.4 mg/kg to rats(control volume is 1.15+/-0.17). The format is functional, Urine.
The subject of test [19] is Rattus norvegicus. In words: Oral diuretic activity was measured after oral administration of 1.6 mg/kg to rats(control volume is 0.86+/-0.09). The format is functional, Urine.
Test [20] deals with Rattus norvegicus. In words: Urea nitrogen concentration measured after intraperitoneal administration of 0.1 mg/kg of compound to rats(vehicle 171.3+/-6.4). The format is functional.
Test [21] deals with Rattus norvegicus. Put plainly: Oral diuretic activity was measured after oral administration of 0.1 mg/kg to rats(control volume is 1.05+/-0.11). The format is functional, Urine.
The subject of test [22] is Rattus norvegicus. In words: Percent inhibition of Urea nitrogen by the compound given as ratio of UN value in treated to vehicle treated ones after intraperitoneal administration of 1 mg/kg of compound to rats(vehicle 139.8+/-7.8). The format is functional. To be noted: ip.
In test [23] the test system is Rattus norvegicus. Put plainly: Percent inhibition of Urea nitrogen by the compound given as ratio of UN value in treated to vehicle treated ones after intraperitoneal administration of 0.1 mg/kg of compound to rats(vehicle 171.3+/-6.4). Conditions: ip. The format is functional.
The target in another test is T1, Adenosine receptor A1 (Cavia porcellus, UniProt P47745).
T1 sequence (P47745 whole entry): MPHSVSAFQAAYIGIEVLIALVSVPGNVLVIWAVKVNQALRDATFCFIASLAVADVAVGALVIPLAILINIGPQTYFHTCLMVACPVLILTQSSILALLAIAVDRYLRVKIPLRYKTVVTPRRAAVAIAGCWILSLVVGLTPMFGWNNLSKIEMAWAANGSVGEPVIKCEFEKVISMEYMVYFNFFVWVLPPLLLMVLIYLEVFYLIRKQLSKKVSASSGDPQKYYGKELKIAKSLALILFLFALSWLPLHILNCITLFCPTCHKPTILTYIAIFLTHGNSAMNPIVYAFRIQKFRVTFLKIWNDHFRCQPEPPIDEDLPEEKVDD

The target in test [24] is T2, Adenosine A2 receptor (Rattus norvegicus, UniProt P29276+P30543).
The test system of test [25] is Rattus norvegicus. In words: Serum creatinine concentration measured after intraperitoneal administration of 10 mg/kg of compound to rats(vehicle 3.38+/-0.29). The format is functional.
Test [26] has as its system Rattus norvegicus. In words: Effect on urinary excretion potassium and sodium after oral administration of 25 mg/kg to rats(potassium and sodium excretion in control rat is 0.209+/-0.007). The format is functional, Urine.
In test [27] the test system is Rattus norvegicus. In words: Ratio of urinary excretion value (urinary volume) in treated rats to that in control rats, at a peroral dose of 25 mg/Kg. The format is functional, Urine.
For test [28], the system named is Rattus norvegicus. Put plainly: Ratio of sodium ion/potassium ion concentration in treated rats to that in control rats, at a peroral dose of 25 mg/Kg. The format is functional.
In test [29] the test system is Rattus norvegicus. In words: Ratio of urinary excretion value (Na+ concentration) in treated rats to that in control rats, at a peroral dose of 25 mg/Kg. The format is functional, Urine.
The subject of test [30] is Rattus norvegicus. In words: Percent inhibition of serum creatinine by the compound given as ratio of Cr value in treated to vehicle treated ones after intraperitoneal administration of 10 mg/kg of compound to rats(vehicle 3.38+/-0.29). The format is functional. Conditions: ip.
Test [31] deals with Rattus norvegicus. In words: Oral diuretic activity was measured after oral administration of 25 mg/kg to rats(control volume is 1.02+/-0.02). The format is functional, Urine.
The test system of test [32] is Rattus norvegicus. Put plainly: Urea nitrogen concentration measured after intraperitoneal administration of 10 mg/kg of compound to rats(vehicle 114+/-8.7). The format is functional.
In test [33] the test system is Rattus norvegicus. In words: Percent inhibition of Urea nitrogen by the compound given as ratio of UN value in treated to vehicle treated ones after intraperitoneal administration of 10 mg/kg of compound to rats(vehicle 114+/-8.7). Conditions: ip. The format is functional.
For test [34], the target named is T2, Adenosine A2 receptor. The source holds these as a separate data set.
Description: Binding affinity towards adenosine A2 receptor in rat striatal membranes using N-[3H]-ethyladenosin-5''-uronamide as radioligand

Description for Adenosine receptor A1: Binding affinity against adenosine A1 receptor in guinea pig forebrain membranes using N6-[3H]cyclohexyladenosine as radioligand

In the case of `CCn1c(=O)c2nc(C3CCCC3)[nH]c2n(CC)c1=O`, the values for the Cr in the test with Rattus norvegicus [1] and with Rattus norvegicus [2] were 2.28 mg/dL and 5.48 mg/dL, respectively. Also, the values for the Na with Rattus norvegicus [3], with Rattus norvegicus [4] and in the test on Rattus norvegicus [5] were 0.206 m equiv 6hr-1 100g-1, 0.342 m equiv 6hr-1 100g-1 and 0.24 m equiv 6hr-1 100g-1, respectively. In addition, the UN in the test with Rattus norvegicus [6] was 65.5 mg/dL; with Rattus norvegicus [20] it was 143.9 mg/dL. Besides, the inhibition in vivo (in general, the relative decrease from the control value, in per cent) at 1 mg/kg was found to be 52% in the test on Rattus norvegicus [7] and 53% with Rattus norvegicus [22]. Further, the T/C is 1.03 in the test with Rattus norvegicus [8]; 1.64 in the test on Rattus norvegicus [9]; 2.43 in the test on Rattus norvegicus [10]; 1.15 with Rattus norvegicus [14]; 1.79 with Rattus norvegicus [15]; 2.09 with Rattus norvegicus [16]. Further, the entries for the “Na+/K+” value in the test on Rattus norvegicus [11], in the test with Rattus norvegicus [12] and in the test on Rattus norvegicus [13] were 1, 1.54 and 1.56, respectively. Moreover, the inhibition in vivo at 0.1 mg/kg in the test with Rattus norvegicus [17] is 21%; in the test on Rattus norvegicus [23], 16%. Further, the results for the Urine volume in the test with Rattus norvegicus [18], in the test on Rattus norvegicus [19] and in the test with Rattus norvegicus [21] were 1.89 ml 6hr-1 100g-1, 2.09 ml 6hr-1 100g-1 and 1.09 ml 6hr-1 100g-1, respectively. Besides, the values for the Ki at Adenosine receptor A1 and on Adenosine A2 receptor [24] were 19 nM and 440 nM, respectively.
In the test with Rattus norvegicus [25], `Nc1nc2ccc(Cl)cc2n2c(-c3ccccc3)nnc12` registered a Cr of 4.58 mg/dL. The compound also came in with a Na with Rattus norvegicus [26] of 0.186 m equiv 6hr-1 100g-1. Moreover, the T/C was 0.85 in the test on Rattus norvegicus [27] and 0.89 in the test on Rattus norvegicus [29]. Also, the “Na+/K+” value with Rattus norvegicus [28] amounted to 1.05. In addition, the results for the inhibition in vivo at 10 mg/kg in the test on Rattus norvegicus [30] and in the test with Rattus norvegicus [33] were -36% and -21%, respectively. Also, in the test with Rattus norvegicus [31], the Urine volume turned out to be 0.87 ml 6hr-1 100g-1. The same compound came in with a UN with Rattus norvegicus [32] of 137.8 mg/dL. In addition, the values for the Ki at Adenosine receptor A1, on Adenosine A2 receptor [34] and on Adenosine A2 receptor [24] were 6900 nM, 21 nM and 5.1 nM, respectively.
